Here are results for nine molecules from ChEMBL document CHEMBL1159126, “Salicylanilide carbamates: antitubercular agents active against multidrug-resistant Mycobacterium tuberculosis strains” (Bioorg Med Chem, 2010).

Converted amounts (≈) assume the structure as drawn.

Holding throughout (assay): microbe, parasite or virus in culture
Assay [1] deals with Mycobacterium tuberculosis. Conditions: isolate Praha 128, 504 h.
Assay [2] has as its system Mycobacterium tuberculosis. As to conditions: isolate Praha 128, 336 h.
Assay [3] concerns Mycobacterium tuberculosis. As to conditions: isolate 9449/06, 336 h.
The test system of assay [4] is Mycobacterium tuberculosis. Conditions: isolate Praha 1, 504 h.
For assay [5], the system named is Mycobacterium tuberculosis. As to conditions: isolate 7357/98, 504 h.
Assay [6] deals with Mycobacterium tuberculosis. As to conditions: isolate 2092/05, 504 h.
The subject of assay [7] is Mycobacterium tuberculosis. As to conditions: isolate 9449/06, 504 h.
The test system of assay [8] is Mycobacterium tuberculosis. Conditions: isolate 2092/05, 336 h.
Assay [9] relates to Mycobacterium tuberculosis. Conditions: isolate Praha 1, 336 h.
The test system of assay [10] is Mycobacterium tuberculosis. As to conditions: isolate 7357/98, 336 h.

Regarding `CCCCNC(=O)Oc1ccc(Cl)cc1C(=O)Nc1ccc(Cl)c(Cl)c1`, the MIC in [1] is 1 µM (≈ 0.416 µg/mL); in assay [2] it was 0.5 µM (≈ 0.208 µg/mL); in [3], 1 µM (≈ 0.416 µg/mL); in assay [4] it was 1 µM (≈ 0.416 µg/mL); in assay [5], 1 µM (≈ 0.416 µg/mL); in assay [6] it was 1 µM (≈ 0.416 µg/mL). In addition, the MIC in [7], in [8], in [9] and in [10] was 0.5 µM (≈ 0.208 µg/mL) throughout.

Consider `CCNC(=O)Oc1ccc(Cl)cc1C(=O)Nc1ccc(Cl)c(Cl)c1`, for which the MIC in assay [1] worked out at 0.5 µM (≈ 0.194 µg/mL); in [2], 0.5 µM (≈ 0.194 µg/mL); in [3], 0.5 µM (≈ 0.194 µg/mL); in [4], 1 µM (≈ 0.388 µg/mL); in assay [5], 1 µM (≈ 0.388 µg/mL); in assay [6] it was 0.5 µM (≈ 0.194 µg/mL). For the same molecule, the MIC in assay [7], in [8], in assay [9] and in assay [10] was 0.5 µM (≈ 0.194 µg/mL) in each case.

For the molecule `CCCCCCCNC(=O)Oc1ccc(Cl)cc1C(=O)Nc1ccc(Cl)c(Cl)c1`, the MIC in [1] is 1 µM (≈ 0.458 µg/mL); in assay [2] it was 0.5 µM (≈ 0.229 µg/mL); in [3], 0.5 µM (≈ 0.229 µg/mL); in [4], 1 µM (≈ 0.458 µg/mL); in assay [5] it was 0.5 µM (≈ 0.229 µg/mL); in assay [6], 1 µM (≈ 0.458 µg/mL). Also, the MIC in assay [7], in [8], in assay [9] and in [10] was 0.5 µM (≈ 0.229 µg/mL) each time.

For `CCCCCCNC(=O)Oc1ccc(Cl)cc1C(=O)Nc1ccc(Cl)c(Cl)c1`, the MIC in assay [1] is 0.5 µM (≈ 0.222 µg/mL); in [2], 0.5 µM (≈ 0.222 µg/mL); in assay [3], 0.5 µM (≈ 0.222 µg/mL); in [4], 1 µM (≈ 0.444 µg/mL); in assay [5], 1 µM (≈ 0.444 µg/mL); in assay [6], 0.5 µM (≈ 0.222 µg/mL). Further, the MIC in assay [7], in [8], in [9] and in assay [10] was 0.5 µM (≈ 0.222 µg/mL) each time.

Consider `NNC(=O)c1ccncc1` [ISONIAZID], for which the MIC in [1], in assay [2], in assay [3], in [4], in assay [5] and in [6] was 16 µM (≈ 2.19 µg/mL) in each case. The MIC in assay [7], in assay [8], in [9] and in assay [10] was 16 µM (≈ 2.19 µg/mL) throughout.

For the molecule `CCCCCCNC(=O)Oc1ccc(Cl)cc1C(=O)Nc1cccc(Cl)c1`, the MIC in assay [1] amounted to 2 µM (≈ 0.819 µg/mL); in [2] it was 1 µM (≈ 0.409 µg/mL); in assay [3], 1 µM (≈ 0.409 µg/mL); in [4], 2 µM (≈ 0.819 µg/mL); in assay [5], 1 µM (≈ 0.409 µg/mL); in assay [6], 2 µM (≈ 0.819 µg/mL). Moreover, the MIC in assay [7], in assay [8], in [9] and in assay [10] was 1 µM (≈ 0.409 µg/mL) in each case.

On to `CCCCCNC(=O)Oc1ccc(Cl)cc1C(=O)Nc1ccc(Cl)cc1`, for which the MIC in assay [1] came to 1 µM (≈ 0.395 µg/mL); in assay [2] it was 1 µM (≈ 0.395 µg/mL); in assay [3], 1 µM (≈ 0.395 µg/mL); in [4], 2 µM (≈ 0.791 µg/mL); in assay [5] it was 2 µM (≈ 0.791 µg/mL); in assay [6], 1 µM (≈ 0.395 µg/mL). Moreover, the MIC in [7], in assay [8], in [9] and in assay [10] was 1 µM (≈ 0.395 µg/mL) throughout.

For the molecule `CCCCCCCCNC(=O)Oc1ccc(Cl)cc1C(=O)Nc1ccc(Cl)c(Cl)c1`, the MIC in [1] worked out at 1 µM (≈ 0.472 µg/mL); in assay [2] it was 0.5 µM (≈ 0.236 µg/mL); in assay [3], 1 µM (≈ 0.472 µg/mL); in [4], 2 µM (≈ 0.944 µg/mL); in [5], 1 µM (≈ 0.472 µg/mL); in assay [6], 1 µM (≈ 0.472 µg/mL). Besides, the MIC in [7] came to 0.5 µM (≈ 0.236 µg/mL); in [8] it was 0.5 µM (≈ 0.236 µg/mL); in [9], 1 µM (≈ 0.472 µg/mL); in [10], 1 µM (≈ 0.472 µg/mL).

Consider `CCCCCNC(=O)Oc1ccc(Cl)cc1C(=O)Nc1ccc(Cl)c(Cl)c1`, for which the MIC in [1] is 0.5 µM (≈ 0.215 µg/mL); in assay [2], 0.5 µM (≈ 0.215 µg/mL); in assay [3], 0.5 µM (≈ 0.215 µg/mL); in assay [4], 1 µM (≈ 0.43 µg/mL); in assay [5] it was 0.5 µM (≈ 0.215 µg/mL); in [6], 0.5 µM (≈ 0.215 µg/mL). Also, the MIC in [7], in assay [8], in assay [9] and in assay [10] was 0.5 µM (≈ 0.215 µg/mL) each time.
